# From publication PMC2654387 (Biochemistry, 2008)
# Read-outs that look alike come from different tables or passages of the source.
# Columns and labels:
# BasE [1] = molecular target: T1, BasE (Acinetobacter baumannii, UniProt A0A0D5YGP3); assay type: biochemical
# EntE [2] = molecular target: T2, EntE (Escherichia coli, UniProt P10378); conditions: cited from earlier work
# EntE [3] = molecular target: T2, EntE; assay: biochemical; assay type: binding
# BasE [4] = molecular target: T1, BasE; assay: biochemical; assay type: binding
# BasE [5] = molecular target: T1, BasE; assay type: binding
# DhbE [6] = molecular target: T3, DhbE (Bacillus subtilis, UniProt P40871); assay type: binding
# T3 sequence (P40871 whole entry): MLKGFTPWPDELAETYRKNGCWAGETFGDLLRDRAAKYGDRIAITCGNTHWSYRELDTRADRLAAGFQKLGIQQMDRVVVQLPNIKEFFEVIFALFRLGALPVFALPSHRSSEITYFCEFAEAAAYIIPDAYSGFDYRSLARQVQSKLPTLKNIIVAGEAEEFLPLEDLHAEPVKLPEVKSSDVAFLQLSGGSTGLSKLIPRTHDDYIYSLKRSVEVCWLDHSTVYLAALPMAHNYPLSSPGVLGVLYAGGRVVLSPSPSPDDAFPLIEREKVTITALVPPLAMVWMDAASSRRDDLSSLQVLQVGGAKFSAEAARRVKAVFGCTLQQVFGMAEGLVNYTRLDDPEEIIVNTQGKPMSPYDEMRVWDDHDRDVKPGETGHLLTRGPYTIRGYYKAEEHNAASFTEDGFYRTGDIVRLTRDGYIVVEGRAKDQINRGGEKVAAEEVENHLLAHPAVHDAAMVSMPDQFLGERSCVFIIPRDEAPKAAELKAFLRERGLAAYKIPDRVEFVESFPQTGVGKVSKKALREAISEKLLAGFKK
# BasE [7] = molecular target: T1, BasE; assay type: binding; remark: listed apart in the source
# MbtA [8] = molecular target: T4, MbtA (Mycobacterium tuberculosis, UniProt P71716)
# T4 sequence (P71716 whole entry, looked up): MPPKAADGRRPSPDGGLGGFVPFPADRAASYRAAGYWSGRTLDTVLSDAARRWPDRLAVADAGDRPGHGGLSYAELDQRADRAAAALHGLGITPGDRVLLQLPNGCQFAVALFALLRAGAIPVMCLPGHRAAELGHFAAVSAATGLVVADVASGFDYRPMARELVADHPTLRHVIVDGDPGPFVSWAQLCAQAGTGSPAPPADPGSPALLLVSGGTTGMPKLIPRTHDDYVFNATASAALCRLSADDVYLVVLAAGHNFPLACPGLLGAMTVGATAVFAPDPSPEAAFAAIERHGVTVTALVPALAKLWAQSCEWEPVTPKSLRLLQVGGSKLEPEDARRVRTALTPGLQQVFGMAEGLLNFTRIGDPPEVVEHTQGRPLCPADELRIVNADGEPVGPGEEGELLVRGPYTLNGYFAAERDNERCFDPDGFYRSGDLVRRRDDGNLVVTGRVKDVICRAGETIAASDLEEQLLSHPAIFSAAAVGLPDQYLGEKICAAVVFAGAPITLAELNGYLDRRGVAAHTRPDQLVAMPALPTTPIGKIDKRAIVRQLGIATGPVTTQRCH
# YbtE [9] = molecular target: T5, YbtE (Yersinia pseudotuberculosis serotype I, UniProt Q3V7P9)
# T5 sequence (Q3V7P9 1-525): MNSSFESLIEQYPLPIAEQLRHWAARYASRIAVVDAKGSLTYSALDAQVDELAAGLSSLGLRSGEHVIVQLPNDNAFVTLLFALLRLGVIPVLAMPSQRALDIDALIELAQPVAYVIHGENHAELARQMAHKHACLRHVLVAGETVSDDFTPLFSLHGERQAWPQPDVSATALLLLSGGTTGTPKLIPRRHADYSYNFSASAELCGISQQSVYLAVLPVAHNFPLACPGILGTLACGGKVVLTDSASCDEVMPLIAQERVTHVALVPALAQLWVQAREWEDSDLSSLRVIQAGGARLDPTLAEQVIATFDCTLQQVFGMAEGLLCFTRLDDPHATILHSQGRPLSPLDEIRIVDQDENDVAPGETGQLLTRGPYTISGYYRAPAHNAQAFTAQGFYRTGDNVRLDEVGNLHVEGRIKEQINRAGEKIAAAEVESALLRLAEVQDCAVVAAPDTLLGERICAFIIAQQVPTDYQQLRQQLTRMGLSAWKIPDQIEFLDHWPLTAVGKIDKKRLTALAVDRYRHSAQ
# EntE [10] = molecular target: T2, EntE
# VibE [11] = molecular target: T6, VibE (Vibrio cholerae serotype O1, UniProt O07899)
# T6 sequence (O07899 whole entry): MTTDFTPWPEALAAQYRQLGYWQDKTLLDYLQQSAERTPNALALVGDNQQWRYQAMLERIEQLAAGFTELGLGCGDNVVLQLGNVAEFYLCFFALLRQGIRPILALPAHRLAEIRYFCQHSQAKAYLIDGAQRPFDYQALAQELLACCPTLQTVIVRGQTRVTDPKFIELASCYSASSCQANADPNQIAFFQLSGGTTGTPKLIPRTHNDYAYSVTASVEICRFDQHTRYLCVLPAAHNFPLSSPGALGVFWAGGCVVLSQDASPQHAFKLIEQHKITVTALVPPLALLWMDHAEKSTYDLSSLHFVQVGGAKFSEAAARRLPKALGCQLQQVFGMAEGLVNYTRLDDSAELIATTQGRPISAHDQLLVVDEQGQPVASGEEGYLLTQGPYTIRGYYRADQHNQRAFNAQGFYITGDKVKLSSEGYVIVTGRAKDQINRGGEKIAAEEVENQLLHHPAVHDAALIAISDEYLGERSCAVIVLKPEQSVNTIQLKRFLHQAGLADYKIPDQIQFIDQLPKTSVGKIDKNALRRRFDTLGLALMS
# AsbC = AsbC (Bacillus anthracis, UniProt Q81RQ7)
# Sequence of AsbC (Q81RQ7 whole entry, looked up): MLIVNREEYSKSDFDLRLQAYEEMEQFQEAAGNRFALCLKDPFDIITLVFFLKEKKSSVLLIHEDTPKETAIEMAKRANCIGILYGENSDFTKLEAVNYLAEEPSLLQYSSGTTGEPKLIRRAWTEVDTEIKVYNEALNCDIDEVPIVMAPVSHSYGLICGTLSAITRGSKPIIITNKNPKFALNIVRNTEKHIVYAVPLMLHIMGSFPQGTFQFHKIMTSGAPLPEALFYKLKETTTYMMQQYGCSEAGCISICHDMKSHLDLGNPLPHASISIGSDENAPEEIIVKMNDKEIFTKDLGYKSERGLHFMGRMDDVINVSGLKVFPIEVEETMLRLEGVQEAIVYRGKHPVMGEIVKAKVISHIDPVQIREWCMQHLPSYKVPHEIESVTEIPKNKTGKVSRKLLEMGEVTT
# MbtA [12] = molecular target: T4, MbtA; remark: listed apart in the source
# MbtA [13] = molecular target: T4, MbtA; remark: listed apart in the source
# MbtA [14] = molecular target: T4, MbtA; assay: biochemical; assay type: binding
# VibE [15] = molecular target: T6, VibE; assay: biochemical; assay type: binding
# DhbE [16] = molecular target: T3, DhbE; assay: biochemical; assay type: binding
# YbtE [17] = molecular target: T5, YbtE; conditions: read-out: Calculated Ligand-Protein Dissociation Constant KD2
# [18] = Calculated Ligand-Protein Dissociation Constant KD2
# [19] = read-out: Calculated Ligand-Protein Dissociation Constant KD2
# T2 sequence (P10378 whole entry): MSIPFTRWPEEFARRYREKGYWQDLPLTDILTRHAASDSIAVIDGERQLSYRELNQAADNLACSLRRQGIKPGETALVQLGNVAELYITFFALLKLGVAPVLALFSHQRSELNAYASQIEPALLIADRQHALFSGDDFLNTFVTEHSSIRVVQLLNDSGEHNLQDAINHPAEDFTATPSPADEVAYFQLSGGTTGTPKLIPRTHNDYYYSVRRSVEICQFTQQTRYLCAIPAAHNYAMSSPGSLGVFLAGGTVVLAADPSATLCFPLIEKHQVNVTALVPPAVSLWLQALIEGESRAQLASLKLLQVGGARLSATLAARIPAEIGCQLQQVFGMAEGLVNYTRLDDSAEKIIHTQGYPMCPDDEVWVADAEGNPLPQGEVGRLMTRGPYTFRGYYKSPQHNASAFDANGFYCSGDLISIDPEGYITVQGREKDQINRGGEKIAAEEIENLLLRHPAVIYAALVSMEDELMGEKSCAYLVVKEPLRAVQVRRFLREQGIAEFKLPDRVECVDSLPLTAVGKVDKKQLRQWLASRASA
# T1 sequence (A0A0D5YGP3 1-542): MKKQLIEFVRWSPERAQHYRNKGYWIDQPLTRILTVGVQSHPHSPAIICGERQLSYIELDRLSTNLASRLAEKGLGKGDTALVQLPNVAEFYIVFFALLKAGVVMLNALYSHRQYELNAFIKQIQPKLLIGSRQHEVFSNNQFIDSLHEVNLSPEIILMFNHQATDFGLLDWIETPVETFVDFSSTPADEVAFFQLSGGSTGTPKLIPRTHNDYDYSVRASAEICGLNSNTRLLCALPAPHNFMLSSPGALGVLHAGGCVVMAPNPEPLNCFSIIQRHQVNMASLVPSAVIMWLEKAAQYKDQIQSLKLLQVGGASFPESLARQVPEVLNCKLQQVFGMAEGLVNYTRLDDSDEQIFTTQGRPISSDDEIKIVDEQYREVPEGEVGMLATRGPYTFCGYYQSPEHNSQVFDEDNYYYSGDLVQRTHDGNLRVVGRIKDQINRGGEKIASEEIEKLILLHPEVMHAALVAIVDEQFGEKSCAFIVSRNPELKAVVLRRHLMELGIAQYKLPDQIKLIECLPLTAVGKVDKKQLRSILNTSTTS
structure (smiles),measurement,setting,value
"O=C(O)c1ccc(O)c(O)c1 [3,4-dihydroxybenzoic acid]",kcat (pyrophosphate exchange),BasE [1],< 0.017 s⁻¹
O=C(O)c1ccccc1 [benzoic acid],kcat (pyrophosphate exchange),BasE [1],< 0.017 s⁻¹
same,kcat,EntE [2],< 0.017 s⁻¹
"Nc1ncnc2c1ncn2[C@@H]1O[C@H](COS(=O)(=O)NC(=O)c2ccccc2O)[C@@H](O)[C@H]1O [compound 4, 5′-O-[N-(salicyl)sulfamoyl]adenosine]",Kd,EntE [3]; [18],0.0336 ± 0.006 µM
same,Kd,BasE [4]; [18],0.0167 ± 0.0031 µM
"CCN(CC)CC.Nc1ncnc2c1ncn2[C@@H]1O[C@H](COS(=O)(=O)NC(=O)c2ccccc2O)[C@@H](O)[C@H]1OCCOCCOCCNC(=O)c1ccc2c(c1)C(=O)OC21c2ccc(O)cc2Oc2cc(O)ccc21 [compound 6, 2′-O-{2-[2-(2-{[(Fluorescein-5-yl)carbonyl]amino}ethoxy)ethoxy]ethoxy}-5′-O-[N-(2-hydroxybenzoyl)sulfamoyl]adenosine Triethylammonium Salt]",AB,BasE [5],0.222 ± 0.002
same,Q,BasE [5],1.02
same,AB,DhbE [6],0.213 ± 0.005
same,Kd,DhbE [6],0.369 ± 0.033 µM
same,Q,DhbE [6],0.89
same,TΔS,BasE [7],4.41 ± 0.18 kcal/mol
same,ΔH,BasE [7],-4.88 ± 0.17 kcal/mol
same,Q,MbtA [8],1.07
same,AB,YbtE [9],0.240 ± 0.002
same,Kd,YbtE [9],0.0576 ± 0.0034 µM
same,Q,YbtE [9],1.07
same,AB,EntE [10],0.210 ± 0.001
same,Kd,EntE [10],0.221 ± 0.008 µM
same,Q,EntE [10],1.21
same,AB,VibE [11],0.200 ± 0.002
same,Kd,VibE [11],0.0855 ± 0.0056 µM
same,Q,VibE [11],1.27
same,change of fluorescence anisotropy of the probe (binding to AsbC),AsbC,did not show a significant change
same,TΔS,MbtA [12],0.71 ± 0.80 kcal/mol
same,ΔH,MbtA [12],-9.80 ± 1.06 kcal/mol
same,koff,MbtA [13],0.0085 ± 0.00033 s⁻¹
"O=C(O)c1ccccc1O [compound 20, salicylic acid]",Kd,MbtA [14],11.9 µM
same,Kd,EntE [3]; [18],211 µM
same,Kd,BasE [4]; [18],57.5 µM
same,Kd,VibE [15],36.6 µM
same,Km,EntE [2],91 µM
same,kcat,EntE [2],2.5 s⁻¹
"O=C(O)c1cccc(O)c1O [compound 21, 2,3-dihydroxybenzoic acid]",Kd,MbtA [14],> 300 µM
same,Kd,EntE [3]; [18],8.18 µM
same,Kd,BasE [4]; [18],2.63 µM
same,Kd,VibE [15],1.64 µM
same,Kd,DhbE [16],3.76 µM
"Nc1ncnc2c1ncn2[C@@H]1O[C@H](COP(=O)(O)O)[C@@H](O)[C@H]1O [compound 22, adenosine monophosphate]",Kd,MbtA [14]; [19],183 µM
same,Kd,EntE [3]; [19],125 µM
same,Kd,BasE [4]; [19],173 µM
same,Kd,VibE [15],12 µM
same,Kd,VibE [15]; [19],12 µM
same,Kd,YbtE [17],260 µM
